Results taken from patent US6680025B2, “Device and method for photoactivation” (Cerus Corporation, priority 1989, dated 2004).

Tests used:
[1] = test system: HIV 115-mer; assay: Post-amplification sterilization, isopsoralen present during amplification (Example 55); assay type: biochemical; conditions: AMDMIP 400 μg/ml, 30 cycles
From the text: For the purposes of this determination, the steps of the following experiment include (see FIG. 42): a) preparing template, b) providing template, c) providing isopsoralen, d) providing PCR reagents, e) providing polymerase, f) mixing isopsoralen, PCR reagents, template, and polymerase to initiate PCR, g) cycling to provide PCR product, h) irradiating, i) carrying over of PCR product into new tubes at specific copy numbers, and j) amplifying in a subsequent PCR.
Step a): Template Preparation. HIV 115-mer was used as template.
Step b) Providing Template. For the reaction, template (equivalent to approximately 107 copies) in buffer was provided for the reaction vessel. Step c) Providing Isopsoralen. AMDMIP (400 μg/ml) was provided as the isopsoralen. This is a higher concentration of AMDMIP than used in the previous example.
Step d), e), f) and g). PCR reagents and polymerase were provided, mixed and cycled as described above. This time, however, isopsoralen is part of the pre-amplification mixture.
Step h) Irradiation. Irradiation was performed on the CE-III device for 15 minutes at 25° C.
Step i) Carrying over of PCR product. Aliquots of PCR product were added into six new reaction tubes—two tubes for each dilution. Dilutions to yield 10^7, 10^5 and 10^3 copies were made. […]

[2] = test system: HIV 115-mer PCR product; assay: Photoproduct sterilization of PCR (HIV 115-mer carryover); assay type: biochemical; conditions: 30 cycles; for sterilization of PCR (Example 52): 100 μl/ml
From the text: FIG. 36 describes a series of oligonucleotides that can be used with the PCR amplification technique. Two primers are described (SK-38 and SK-39) that are complementary to a segment of the HIV genome. Each primer is complementary to sequences at the […] of one of each of two strands of a 115 base pair long segment of the HIV genome. In addition, FIG. 36 describes a crosslinkable probe molecule which is capable of hybridizing and crosslinking to one strand of the 115-mer PCR product. Repeated thermal cycling of SK-38 and SK-39 in the presence of Taq polymerase, appropriate reagents, and a target polynucleotide containing at least the 115-mer segment bounded by SK-38/SK-39, will result in the synthesis of both strands of the 115-mer. Therefore, PCR amplification will occur, with both strands of the 115-mer accumulating geometrically. This is in contrast to the oligonuceleotides described in FIG. 26. Only one primer (SK-39) is described in FIG. 26 which is capable hybridizing to the 3′ end of the 71-mer target oligonucleotide (HRI-55). The lack of a second primer in the system of oligonucleotides described by FIG. 26 prevents this system from being amplified geometrically. Repeated thermal cycling of HRI-55 and SK-39 in the presence of Taq polymerase and appropriate reagents will result in the linear accumulation of the complement of HRI-55.
[…] Aliquots of AMDIIIP photoproduct and the unirradiated compound were added (by pipetting) at 50, 100, 200 and 300 μg/ml to 1 μl aliquots of a 10^6 delution of PCR product copies. PCR product was provided by a) preparing template, b) providing template, c) providing PCR reagents, d) providing polymerase, e) mixing PCR reagents, template, and polymerase to initiate PCR, f) cycling to synthesize PCR product.
Step a): Template Preparation. The templates were derived from actual patient samples. Ficoll-Hypaque separated peripheral blood mononuclear cells (PBMCs) are prepared from individuals enrolled in a longitudinal AIDS study. Approximately 1×10^6 cells are added to 10 ml of RPMI containing 10% fetal calf serum. The cells are pelleted by centrifugation at 20×g for 5 minutes and washed twice with 10 ml PBS. The cell pellet is resuspended in a solution of 50 mM KCl, 10 mM Tris-HCl (pH 8.3), 2.5 mM MgCl2 and subsequently lysed by the addition of 0.5% Tween 20 and 0.5% NP40. Samples are digested with 60 μg/ml proteinase K (Sigma) for 1 hour at 60° C. […]
Again, to evaluate the efficacy of this method of sterilization, a subsequent polymerase chain reaction was carried out for 30 cycles in the presence of α-^32P-dCTP. PCR product was then quantitated by running gels (see above), cutting the bands (detected by autoradiography) and counting the bands on a commercial scintillation counter. […]

Cc1oc2ccc3c(C)cc(=O)oc3c2c1CN [AMDMIP, 4′-Aminomethyl-4,5′-dimethylisopsoralen]
post-amplification sterilization ([1]; CE-III 15 minutes at 25° C., 10^7, 10^5, 10^3 copies carried over): complete, post-amplification sterilization
reamplification of carryover with AMDMIP, not light-treated [1]: show amplification
sterilization of PCR (Example 52) ([2]; AMDMIP irradiated in CE-III device 15 minutes): extensive sterilization
sterilization of PCR (Example 52) ([2]; AMDMIP irradiated in PTI device 15 minutes): little sterilization
sterilization of PCR (Example 52) ([2]; unirradiated AMDMIP): PCR product is clearly evident
sterilization of PCR ([2]; unirradiated compound at 50, 100, 200, 300 μg/ml): no sterilization
